Consider one compound from US20250355005A1, “System and Method for Drug-Related Data Collection and Analysis” (FloBio LLC, priority 2023, published 2025).

The structures appear in SMILES notation.

This experiment has as its system blood sample (fibrin and platelet accumulation at collagen/tissue factor reaction zone). Description: microfluidic flow assay of a blood sample treated with different doses of DOAC, fibrin and platelet fluorescence signal at two temperatures. The experiment is classed as cell-based, human. The settings on record: increasing Rivaroxaban dose, in relation to the HBS control; 37° C. and 21° C. The text has this:
Fibrin signal decreases as Rivaroxaban (R) dose is increased, in relation to the HBS control, as expected. As temperature increases, fibrin reactions initiate carlier, fibrin and platelet maximum rate of change increases (steeper slope), and fibrin and platelet signals are increased overall at the same point in time. The DOAC drug dose effect seen at higher temperatures follows similar dose behavior seen at lower temperatures. As illustrated in FIGS. 49A-49B, about a two-fold platelet signal increase at 400 s is seen, a substantial increase in maximum rate of change of fluorescence is also seen. […]
The device 100 can allow for up to eight unique conditions to be tested simultaneously. […] Estimated drug level can be determined through comparison to a fully attenuated sample and a fully reversed sample, in comparison to an IC50 drug response curve, linear regression, […] analysis or other statistical methodology. […]
The system can rely on direct fluorescence signals for analysis of the results at the collagen/tissue factor 112. Fresh whole blood (used within minutes of venous draw), AF594 fibrinogen label (fibrinogen from human plasma, Alexa Fluor™ 594 conjugate) and platelet MCA2588A488 label (mouse anti-human CD61, Alexa Fluor™ 488 conjugate) can be added to the device 100 and the direct fluorescence signals can be analyzed. […]

For the compound `O=C(NC[C@H]1CN(c2ccc(N3CCOCC3=O)cc2)C(=O)O1)c1ccc(Cl)s1` [Rivaroxaban], the Fibrin signal result is “decreases”.
